Measurements published in patent publication US11447505B1, “Pyrrolo[2,3-b]pyridine compounds and their use in the treatment of cancer” (priority 2017, dated 2022).
Read-outs that look alike come from different tables or passages of the source.

Key:
MRCKα = MRCKα (Homo sapiens (Human), UniProt Q5VT25); test: MRCKα kinase assay (IMAP fluorescence polarization); assay type: biochemical
Excerpt: (§1) MRCKα, MRCKβ, ROCK1 and ROCK2 Kinase Assays

MRCKβ [1] = biological target: T1, MRCKβ (Homo sapiens (Human), UniProt Q9Y5S2); test: MRCKβ kinase assay (IMAP fluorescence polarization); assay type: biochemical
Excerpt: as §1

ROCK2 = ROCK2 (Homo sapiens (Human), UniProt O75116); test: ROCK2 kinase assay (IMAP fluorescence polarization); assay type: biochemical
MRCKβ [2] = biological target: T1, MRCKβ; test: MRCKβ cellular assay (pMLC T18/S19 immunoblot, MDA-MB-231 cells with doxycycline inducible kinase domain); assay type: cell-based
Method: (§2) MRCKβ, ROCK1 and ROCK2 Cellular Assays
(§3) MDA-MB-231 cells expressing doxycycline inducible ROCK1, ROCK2 or MRCKβ kinase domains were plated at 1.1×10^5 cells per well of a 12 well plate. After 24 hours, cells were treated with 1 μg/ml doxycycline for 18 hours to induce kinase domain expression and then tested over a suitable concentration range with compounds of the invention for 60 minutes. Cells were then washed with PBS and lysed with Tris-SDS lysis Buffer (50 mM Tris-HCl pH7.4, 0.5% (v/v) SDS, 1×PhosStop Inhibitors (04 906 837 001; Roche) and 1×Complete Protease Inhibitors (04 693 124 001; Roche)). Whole cell lysates were clarified by passing through QIAshredder spin columns, separated by SDS-PAGE, and quantitative immunoblotting performed using a LI-COR Odyssey IR scanner to determine pMLC (T18/S19) and α-Tubulin levels.

ROCK1 [3] = biological target: T2, ROCK1 (Homo sapiens (Human), UniProt Q13464); test: ROCK1 cellular assay (pMLC T18/S19 immunoblot, MDA-MB-231 cells with doxycycline inducible kinase domain); assay type: cell-based; details: MDA-MB-231 cells, doxycycline inducible kinase domain, 60 minutes, pMLC (T18/S19); read-out: Cellular assay - ROCK1 inhibition MEAN
Method: as §2, §3

ROCK1 [4] = biological target: T2, ROCK1; details: read-out: ROCK1 Average Ki; 1 μM ATP
ROCK1 [5] = biological target: T2, ROCK1; test: biochemical
[6] = 1 μM ATP, read-out: MRCK-a Average Ki
[7] = 1 μM ATP, read-out: MRCK-B Average Ki
[8] = 1 μM ATP, read-out: ROCK2 Average Ki
[9] = MDA-MB-231 cells, doxycycline inducible kinase domain, 60 minutes, pMLC (T18/S19), read-out: Cellular assay - MRCK-b inhibition MEAN

T2 sequence (Q13464 2-1354 limits assumed): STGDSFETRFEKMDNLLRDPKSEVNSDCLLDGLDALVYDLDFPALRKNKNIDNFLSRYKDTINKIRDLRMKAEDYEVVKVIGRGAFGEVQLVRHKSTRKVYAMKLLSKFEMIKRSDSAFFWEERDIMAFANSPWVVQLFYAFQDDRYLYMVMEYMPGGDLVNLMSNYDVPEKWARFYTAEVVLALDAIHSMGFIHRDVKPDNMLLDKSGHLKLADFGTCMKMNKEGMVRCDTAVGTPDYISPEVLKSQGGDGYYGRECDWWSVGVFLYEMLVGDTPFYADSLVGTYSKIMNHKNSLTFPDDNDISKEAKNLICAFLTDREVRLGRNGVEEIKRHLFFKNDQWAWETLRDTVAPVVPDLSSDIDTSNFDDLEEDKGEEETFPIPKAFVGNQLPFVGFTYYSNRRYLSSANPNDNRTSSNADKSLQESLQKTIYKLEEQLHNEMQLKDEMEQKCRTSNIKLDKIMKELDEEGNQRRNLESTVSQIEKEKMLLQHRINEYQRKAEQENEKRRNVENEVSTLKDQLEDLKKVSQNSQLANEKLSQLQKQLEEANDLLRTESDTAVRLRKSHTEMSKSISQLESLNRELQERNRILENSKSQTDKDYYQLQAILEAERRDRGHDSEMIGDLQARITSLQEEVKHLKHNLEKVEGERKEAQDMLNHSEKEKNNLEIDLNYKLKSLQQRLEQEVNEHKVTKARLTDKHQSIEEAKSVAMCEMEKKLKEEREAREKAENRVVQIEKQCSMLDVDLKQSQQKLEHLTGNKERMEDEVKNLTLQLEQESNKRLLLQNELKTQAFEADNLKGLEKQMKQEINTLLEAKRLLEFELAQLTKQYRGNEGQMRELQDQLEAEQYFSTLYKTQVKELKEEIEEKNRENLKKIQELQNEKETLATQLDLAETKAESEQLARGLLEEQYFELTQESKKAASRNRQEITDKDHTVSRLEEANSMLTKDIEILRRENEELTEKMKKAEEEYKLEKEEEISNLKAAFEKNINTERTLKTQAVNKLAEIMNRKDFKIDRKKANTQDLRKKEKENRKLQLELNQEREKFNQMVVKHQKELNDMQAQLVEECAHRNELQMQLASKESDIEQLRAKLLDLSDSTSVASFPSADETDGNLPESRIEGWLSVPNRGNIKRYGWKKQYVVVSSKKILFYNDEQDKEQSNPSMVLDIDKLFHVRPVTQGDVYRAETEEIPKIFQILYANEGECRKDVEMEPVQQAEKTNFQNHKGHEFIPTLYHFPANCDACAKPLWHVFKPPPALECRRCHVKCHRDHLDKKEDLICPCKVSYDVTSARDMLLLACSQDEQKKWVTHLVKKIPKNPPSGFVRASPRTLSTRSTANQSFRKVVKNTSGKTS
Sequence of MRCKα (Q5VT25 whole entry): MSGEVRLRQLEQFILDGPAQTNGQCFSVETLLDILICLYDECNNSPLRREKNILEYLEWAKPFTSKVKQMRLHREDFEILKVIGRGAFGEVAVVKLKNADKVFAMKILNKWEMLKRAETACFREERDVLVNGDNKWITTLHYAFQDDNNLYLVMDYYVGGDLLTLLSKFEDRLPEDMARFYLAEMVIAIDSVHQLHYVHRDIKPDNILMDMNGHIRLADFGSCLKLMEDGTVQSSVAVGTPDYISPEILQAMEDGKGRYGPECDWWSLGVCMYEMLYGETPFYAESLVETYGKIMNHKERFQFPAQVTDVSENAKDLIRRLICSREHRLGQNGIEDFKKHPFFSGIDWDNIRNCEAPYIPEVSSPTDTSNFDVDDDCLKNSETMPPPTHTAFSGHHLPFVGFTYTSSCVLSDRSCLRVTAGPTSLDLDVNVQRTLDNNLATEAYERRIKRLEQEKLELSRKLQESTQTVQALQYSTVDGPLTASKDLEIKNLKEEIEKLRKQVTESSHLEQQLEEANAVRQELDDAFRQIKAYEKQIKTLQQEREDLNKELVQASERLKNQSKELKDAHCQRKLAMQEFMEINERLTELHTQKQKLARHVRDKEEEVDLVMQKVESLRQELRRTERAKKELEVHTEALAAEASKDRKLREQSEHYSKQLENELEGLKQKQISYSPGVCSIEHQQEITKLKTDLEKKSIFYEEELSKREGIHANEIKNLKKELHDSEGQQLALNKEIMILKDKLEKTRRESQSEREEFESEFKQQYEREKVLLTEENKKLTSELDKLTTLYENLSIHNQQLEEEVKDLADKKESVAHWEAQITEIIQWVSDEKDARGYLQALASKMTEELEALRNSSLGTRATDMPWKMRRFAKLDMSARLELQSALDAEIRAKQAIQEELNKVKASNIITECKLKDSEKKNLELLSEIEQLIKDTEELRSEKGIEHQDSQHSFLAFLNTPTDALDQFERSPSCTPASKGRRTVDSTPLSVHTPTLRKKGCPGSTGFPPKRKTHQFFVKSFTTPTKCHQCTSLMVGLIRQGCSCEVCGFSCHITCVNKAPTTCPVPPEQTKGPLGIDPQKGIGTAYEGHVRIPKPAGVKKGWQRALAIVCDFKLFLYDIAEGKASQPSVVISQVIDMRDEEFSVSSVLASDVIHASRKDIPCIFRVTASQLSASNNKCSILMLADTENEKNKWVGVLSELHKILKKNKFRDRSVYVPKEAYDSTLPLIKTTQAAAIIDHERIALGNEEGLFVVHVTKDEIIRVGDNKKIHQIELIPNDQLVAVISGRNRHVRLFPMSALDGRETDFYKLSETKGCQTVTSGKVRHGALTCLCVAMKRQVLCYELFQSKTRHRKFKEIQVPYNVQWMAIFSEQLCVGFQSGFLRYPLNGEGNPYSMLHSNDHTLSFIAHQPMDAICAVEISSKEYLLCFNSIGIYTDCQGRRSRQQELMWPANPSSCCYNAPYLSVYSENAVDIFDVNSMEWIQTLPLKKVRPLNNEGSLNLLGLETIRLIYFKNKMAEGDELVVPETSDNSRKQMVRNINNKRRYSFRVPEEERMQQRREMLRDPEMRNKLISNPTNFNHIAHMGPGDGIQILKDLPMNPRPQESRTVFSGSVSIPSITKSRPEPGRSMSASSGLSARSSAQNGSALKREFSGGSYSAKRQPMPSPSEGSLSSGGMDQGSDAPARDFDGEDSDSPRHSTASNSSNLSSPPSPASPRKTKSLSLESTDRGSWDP
Sequence of ROCK2 (O75116 whole entry, the tested form may be a part): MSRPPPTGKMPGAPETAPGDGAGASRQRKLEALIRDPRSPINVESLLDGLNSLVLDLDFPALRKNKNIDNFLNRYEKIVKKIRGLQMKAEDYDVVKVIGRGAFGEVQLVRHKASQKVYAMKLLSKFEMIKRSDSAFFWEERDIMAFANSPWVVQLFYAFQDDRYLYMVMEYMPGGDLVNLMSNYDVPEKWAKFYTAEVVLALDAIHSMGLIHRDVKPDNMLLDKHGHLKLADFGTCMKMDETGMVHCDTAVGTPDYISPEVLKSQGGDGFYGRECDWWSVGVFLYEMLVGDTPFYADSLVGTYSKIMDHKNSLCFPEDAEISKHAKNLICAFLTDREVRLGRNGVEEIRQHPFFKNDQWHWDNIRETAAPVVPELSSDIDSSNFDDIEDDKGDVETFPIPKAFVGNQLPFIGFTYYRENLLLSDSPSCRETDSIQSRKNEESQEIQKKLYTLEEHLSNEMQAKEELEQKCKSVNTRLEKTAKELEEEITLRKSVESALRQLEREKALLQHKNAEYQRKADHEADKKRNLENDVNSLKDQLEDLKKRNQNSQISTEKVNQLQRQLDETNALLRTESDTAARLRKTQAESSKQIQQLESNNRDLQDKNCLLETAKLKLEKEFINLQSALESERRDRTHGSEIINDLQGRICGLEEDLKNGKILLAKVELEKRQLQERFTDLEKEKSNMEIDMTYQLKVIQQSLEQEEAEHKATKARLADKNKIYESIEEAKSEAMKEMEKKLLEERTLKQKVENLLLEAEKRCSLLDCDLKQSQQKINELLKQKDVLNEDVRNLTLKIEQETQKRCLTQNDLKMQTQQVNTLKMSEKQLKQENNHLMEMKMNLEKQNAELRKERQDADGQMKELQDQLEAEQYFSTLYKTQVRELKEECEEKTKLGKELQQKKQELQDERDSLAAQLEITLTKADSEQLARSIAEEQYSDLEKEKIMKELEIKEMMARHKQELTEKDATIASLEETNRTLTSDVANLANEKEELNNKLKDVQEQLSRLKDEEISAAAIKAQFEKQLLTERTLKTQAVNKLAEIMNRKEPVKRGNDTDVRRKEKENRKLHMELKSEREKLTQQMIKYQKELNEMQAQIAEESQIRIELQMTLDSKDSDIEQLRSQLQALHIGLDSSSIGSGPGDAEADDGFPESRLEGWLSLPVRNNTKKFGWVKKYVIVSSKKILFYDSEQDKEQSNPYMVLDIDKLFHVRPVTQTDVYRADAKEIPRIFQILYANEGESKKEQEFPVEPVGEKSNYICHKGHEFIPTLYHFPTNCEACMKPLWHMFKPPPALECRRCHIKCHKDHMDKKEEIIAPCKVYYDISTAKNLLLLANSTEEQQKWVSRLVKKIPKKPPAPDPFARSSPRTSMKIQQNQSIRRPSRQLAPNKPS

3-ethyl-1-[3-(5-methylthiazol-2-yl)-1H-pyrrolo[2,3-b]pyridin-4-yl]piperidin-3-amine [Example E177]
Ki (MRCKα; [6]): 0.0822 nM | Ki (MRCKβ [1]; [7]): 0.0888 nM | Ki (ROCK2; [8]): 96.2 nM | IC50 (MRCKβ [2]; [9]): 274 nM | IC50 (ROCK1 [3]): > 30000 nM | Ki (ROCK1 [4]): 33.7 nM

c1cc(-c2c[nH]c3nccc(N4CCC[C@H](NC5CC5)C4)c23)cnn1 [Example E46, (3S)-N-cyclopropyl-1-(3-pyridazin-4-yl-1H-pyrrolo[2,3-b]pyridin-4-yl)piperidin-3-amine]
Ki (MRCKα; [6]): 0.322 nM | Ki (MRCKβ [1]; [7]): 0.238 nM | Ki (ROCK2; [8]): 233 nM | IC50 (MRCKβ [2]; [9]): 1540 nM | Ki (ROCK1 [5]): 11.9 nM

CN[C@H]1CCCN(c2ccnc3[nH]cc(-c4nccs4)c23)C1 [Example E47, (3S)-N-methyl-1-(3-thiazol-2-yl-1H-pyrrolo[2,3-b]pyridin-4-yl)piperidin-3-amine]
Ki (MRCKα; [6]): 0.158 nM | Ki (MRCKβ [1]; [7]): 0.304 nM | Ki (ROCK2; [8]): 103 nM | IC50 (MRCKβ [2]; [9]): 1530 nM | Ki (ROCK1 [5]): 595 nM

CN[C@H]1CCCN(c2ccnc3[nH]cc(-c4ccncn4)c23)C1 [Example E66, (3S)-N-methyl-1-(3-pyrimidin-4-yl-1H-pyrrolo[2,3-b]pyridin-4-yl)piperidin-3-amine]
Ki (MRCKα; [6]): 0.238 nM | Ki (MRCKβ [1]; [7]): 0.17 nM | Ki (ROCK2; [8]): 99.2 nM | IC50 (MRCKβ [2]; [9]): 1780 nM | Ki (ROCK1 [5]): 241 nM

CN[C@H]1CCCN(c2ccnc3[nH]cc(-c4cc[nH]n4)c23)C1 [Example E83, (3S)-N-methyl-1-[3-(1H-pyrazol-3-yl)-1H-pyrrolo[2,3-b]pyridin-4-yl]piperidin-3-amine]
Ki (MRCKα; [6]): 0.481 nM | Ki (MRCKβ [1]; [7]): 1.85 nM | Ki (ROCK2; [8]): 196 nM | Ki (ROCK1 [5]): 1110 nM

c1ncc(-c2c[nH]c3nccc(N[C@H]4CCCNC4)c23)cn1 [Example E87, N-[(3S)-3-piperidyl]-3-pyrimidin-5-yl-1H-pyrrolo[2,3-b]pyridin-4-amine]
Ki (MRCKα; [6]): 33.6 nM | Ki (MRCKβ [1]; [7]): 54.3 nM | Ki (ROCK2; [8]): 326 nM | Ki (ROCK1 [5]): 50300 nM

OC1CCN([C@H]2CCCN(c3ccnc4[nH]cc(-c5cncnc5)c34)C2)C1 (stereo partly drawn) [Example E93, [(3S)-1-(3-pyrimidin-5-yl-1H-pyrrolo[2,3-b]pyridin-4-yl)-3-piperidyl]pyrrolidin-3-ol]
Ki (MRCKα; [6]): 11.6 nM | Ki (MRCKβ [1]; [7]): 4.78 nM | Ki (ROCK2; [8]): 830 nM | Ki (ROCK1 [5]): 2380 nM

O[C@@H]1CCCN(c2ccnc3[nH]cc(-c4cncnc4)c23)C1 [Example E100, (3R)-1-(3-pyrimidin-5-yl-1H-pyrrolo[2,3-b]pyridin-4-yl)piperidin-3-ol]
Ki (MRCKβ [1]; [7]): 71.3 nM | Ki (ROCK2; [8]): 277 nM | Ki (ROCK1 [5]): 505 nM

c1cc(N2CCCC3(CCCCN3)C2)c2c(-c3cnsc3)c[nH]c2n1 (stereo not drawn) [Example E114, 4-[4-(1,8-diazaspiro[5.5]undecan-8-yl)-1H-pyrrolo[2,3-b]pyridin-3-yl]isothiazole]
Ki (MRCKα; [6]): 0.0683 nM | Ki (MRCKβ [1]; [7]): 0.0813 nM | Ki (ROCK2; [8]): 6.42 nM | IC50 (MRCKβ [2]; [9]): 40.5 nM | Ki (ROCK1 [5]): 18.3 nM

c1ncc(-c2c[nH]c3nccc(N4CC[C@@]5(CCCCN5)C4)c23)cn1 [Example E126, (5S)-2-(3-pyrimidin-5-yl-1H-pyrrolo[2,3-b]pyridin-4-yl)-2,6-diazaspiro[4.5]decane]
Ki (MRCKα; [6]): 0.0413 nM | Ki (MRCKβ [1]; [7]): 0.057 nM | Ki (ROCK2; [8]): 23.1 nM | IC50 (MRCKβ [2]; [9]): 1270 nM | IC50 (ROCK1 [3]): > 30000 nM | Ki (ROCK1 [4]): 68.3 nM

c1cc(-c2c[nH]c3nccc(N4CC[C@@]5(CCCCN5)C4)c23)ncn1 [Example E128, (5S)-2-(3-pyrimidin-4-yl-1H-pyrrolo[2,3-b]pyridin-4-yl)-2,6-diazaspiro[4.5]decane]
Ki (MRCKα; [6]): 0.0317 nM | Ki (MRCKβ [1]; [7]): 0.0652 nM | Ki (ROCK2; [8]): 4.41 nM | IC50 (MRCKβ [2]; [9]): 420 nM | Ki (ROCK1 [4]): 10.6 nM

c1cc(N2CCC3(CCCCN3)C2)c2c(-c3ncsn3)c[nH]c2n1 (stereo not drawn) [Example E129, 3-[4-(2,6-diazaspiro[4.5]decan-2-yl)-1H-pyrrolo[2,3-b]pyridin-3-yl]-1,2,4-thiadiazole]
Ki (MRCKα): 0.0518 nM | Ki (MRCKβ [1]): 0.206 nM | Ki (ROCK2): 23.6 nM | IC50 (MRCKβ [2]): 729 nM | Ki (ROCK1 [5]): 108 nM

c1csc(-c2c[nH]c3nccc(N4CC[C@@]5(CCCCN5)C4)c23)n1 [Example E133, 2-[4-[(5S)-2,6-diazaspiro[4.5]decan-2-yl]-1H-pyrrolo[2,3-b]pyridin-3-yl]thiazole]
Ki (MRCKα): 0.0149 nM | Ki (MRCKβ [1]): 0.03 nM | Ki (ROCK2): 6.41 nM | IC50 (MRCKβ [2]): 108 nM | Ki (ROCK1 [5]): 25.9 nM

c1csc(-c2c[nH]c3nccc(N4CCC5(CCCCN5)C4)c23)n1 (stereo not drawn) [Example E155, 2-[4-(2,6-diazaspiro[4.5]decan-2-yl)-1H-pyrrolo[2,3-b]pyridin-3-yl]thiazole]
Ki (MRCKβ [1]): 0.0822 nM | IC50 (MRCKβ [2]): 218 nM | Ki (ROCK1 [5]): 79.5 nM

c1cc(-c2c[nH]c3nccc(N4CCCC5(CCCCN5)C4)c23)ncn1 (stereo not drawn) [Example E168, 8-(3-pyrimidin-4-yl-1H-pyrrolo[2,3-b]pyridin-4-yl)-1,8-diazaspiro[5.5]undecane]
Ki (MRCKβ [1]; [7]): 0.065 nM | Ki (ROCK2; [8]): 30.9 nM | IC50 (MRCKβ [2]; [9]): < 30 nM | Ki (ROCK1 [4]): 89 nM

Fc1cccnc1-c1c[nH]c2nccc(N3CCCC4(CCCCN4)C3)c12 (stereo not drawn) [Example E169, 8-[3-(3-fluoro-2-pyridyl)-1H-pyrrolo[2,3-b]pyridin-4-yl]-1,8-diazaspiro[5.5]undecane]
Ki (MRCKα; [6]): 0.189 nM | Ki (MRCKβ [1]; [7]): 0.106 nM | Ki (ROCK2; [8]): 261 nM | IC50 (MRCKβ [2]; [9]): 732 nM | Ki (ROCK1 [5]): 861 nM

Fc1ccc(-c2c[nH]c3nccc(N4CCCC5(CCCCN5)C4)c23)nc1 (stereo not drawn) [Example E170, 8-[3-(5-fluoro-2-pyridyl)-1H-pyrrolo[2,3-b]pyridin-4-yl]-1,8-diazaspiro[5.5]undecane]
Ki (MRCKα; [6]): 0.17 nM | Ki (MRCKβ [1]; [7]): 0.1 nM | Ki (ROCK2; [8]): 165 nM | IC50 (MRCKβ [2]; [9]): 612 nM | Ki (ROCK1 [5]): 564 nM

Fc1cncc(-c2c[nH]c3nccc(N4CCCC5(CCCCN5)C4)c23)c1 (stereo not drawn) [Example E171, 8-[3-(5-fluoro-3-pyridyl)-1H-pyrrolo[2,3-b]pyridin-4-yl]-1,8-diazaspiro[5.5]undecane]
Ki (MRCKα; [6]): 0.0639 nM | Ki (MRCKβ [1]; [7]): 0.0648 nM | Ki (ROCK2; [8]): 85.2 nM | IC50 (MRCKβ [2]; [9]): 233 nM | Ki (ROCK1 [5]): 207 nM

CC1(N)CCCN(c2ccnc3[nH]cc(-c4nccs4)c23)C1 (stereo not drawn) [Example E176, 3-methyl-1-(3-thiazol-2-yl-1H-pyrrolo[2,3-b]pyridin-4-yl)piperidin-3-amine]
Ki (MRCKα; [6]): 0.0934 nM | Ki (MRCKβ [1]; [7]): 0.0923 nM | Ki (ROCK2; [8]): 42 nM | IC50 (MRCKβ [2]; [9]): 255 nM | Ki (ROCK1 [5]): 67.1 nM

CC1(N)CCCN(c2ccnc3[nH]cc(-c4cncnc4)c23)C1 (stereo not drawn) [Example E178, 3-methyl-1-(3-pyrimidin-5-yl-1H-pyrrolo[2,3-b]pyridin-4-yl)piperidin-3-amine]
Ki (MRCKα; [6]): 0.517 nM | Ki (MRCKβ [1]; [7]): 0.181 nM | Ki (ROCK2; [8]): 119 nM | IC50 (MRCKβ [2]; [9]): 622 nM | Ki (ROCK1 [4]): 423 nM

CN1CC[C@@H]2CCN(c3ccnc4[nH]cc(-c5cncnc5)c34)C[C@@H]21 [Example E180, 4-[(3aR,7aR)-1-methyl-3,3a,4,5,7,7a-hexahydro-2H-pyrrolo[2,3-c]pyridin-6-yl]-3-pyrimidin-5-yl-1H-pyrrolo[2,3-b]pyridine]
Ki (MRCKβ [1]; [7]): 124 nM | Ki (ROCK2; [8]): 1580 nM | Ki (ROCK1 [5]): 3420 nM

N#Cc1c[nH]c2nccc(N3CC[C@@H](N)C3)c12 [Example E197, 4-[(3R)-3-aminopyrrolidin-1-yl]-1H-pyrrolo[2,3-b]pyridine-3-carbonitrile]
Ki (MRCKβ [1]; [7]): 8.82 nM | Ki (ROCK2; [8]): 7 nM | Ki (ROCK1 [5]): 19.8 nM

CN1CC[C@H]2CN(c3ccnc4[nH]cc(-c5cncnc5)c34)CC[C@H]21 [Example E200, 4-[(3aS,7aR)-1-methyl-3,3a,4,6,7,7a-hexahydro-2H-pyrrolo[3,2-c]pyridin-5-yl]-3-pyrimidin-5-yl-1H-pyrrolo[2,3-b]pyridine]
Ki (MRCKβ [1]; [7]): 3.13 nM | Ki (ROCK2; [8]): 145 nM | Ki (ROCK1 [5]): 196 nM

CN1CCCN(C(=O)[C@@H]2CCCN2c2ccnc3[nH]cc(C#N)c23)CC1 [Example E201, 4-[(2S)-2-(4-methyl-1,4-diazepane-1-carbonyl)pyrrolidin-1-yl]-1H-pyrrolo[2,3-b]pyridine-3-carbonitrile]
Ki (MRCKβ [1]; [7]): 147 nM | Ki (ROCK2; [8]): 703 nM | Ki (ROCK1 [5]): 1050 nM

c1ncc(-c2c[nH]c3nccc(OC[C@@H]4CCCNC4)c23)cn1 [Example E214, 4-[[(3R)-3-piperidyl]methoxy]-3-pyrimidin-5-yl-1H-pyrrolo[2,3-b]pyridine]
Ki (MRCKβ [1]; [7]): 1.07 nM | Ki (ROCK2; [8]): 32.1 nM | Ki (ROCK1 [5]): 42 nM

c1ncc(-c2c[nH]c3nccc(OC[C@H]4CCCNC4)c23)cn1 [Example E218, 4-[[(3S)-3-piperidyl]methoxy]-3-pyrimidin-5-yl-1H-pyrrolo[2,3-b]pyridine]
Ki (MRCKα; [6]): 0.189 nM | Ki (MRCKβ [1]; [7]): 1.15 nM | Ki (ROCK2; [8]): 17.6 nM | Ki (ROCK1 [5]): 18.6 nM

CN1CCC[C@@H](COc2ccnc3[nH]cc(-c4cncnc4)c23)C1 [Example E224, 4-[[(3R)-1-methyl-3-piperidyl]methoxy]-3-pyrimidin-5-yl-1H-pyrrolo[2,3-b]pyridine]
Ki (MRCKα; [6]): 1.91 nM | Ki (MRCKβ [1]; [7]): 3.29 nM | Ki (ROCK2; [8]): 102 nM | Ki (ROCK1 [5]): 152 nM
